In article PMC5730592, “Parallelogram based approach for in vivo dose estimation of genotoxic metabolites in humans with relevance to reduction of animal experiments” (Scientific Reports, 2017):
“And” between values parts separate entries of the source, which are not always exact repeats. Equal values may be shown once. Read-outs that look alike come from different tables or passages of the source.

Experiments:
in vitro = details: for Vmax (SE), GA elimination: GA 2–50 μM, 10 min, pH 7.5, 37 °C, n = 7 × 2; for EE = Vmax/Km, GA elimination / Km: male, pH 7.5
Method: As the parameters Vmax and Km were determined by the same experimental setup, the enzyme efficiency (EE) for the metabolic reactions is calculated as the ratio of Vmax to Km.
The metabolic system was similar to that we used in our earlier work[20] and is described in Supplementary information Note 1. […] The mixture was centrifuged (500 × g, 4 min) and supernatant treated as described below.
The supernatant (300 μL) obtained following centrifugation in the metabolism experiments was added to a cob(I)alamin solution (200 μL) in water. The reaction was continued under argon atmosphere for 20 min, and subsequently a gentle stream of air was passed to oxidize any reduced cobalamin. Analysis of the solution was performed by liquid chromatography tandem mass spectrometry (LC-MS/MS). The MS was operated using electrospray positive-ionization (ESI^+) and quantification performed using multiple reaction monitoring (MRM) mode. Method for preparation of cob(I)alamin solution from hydroxocobalamin and analysis of the generated alkylcobalamins, GA-Cbl from GA and PO-Cbl from PO, were similar to our earlier work[8] and are described under Supplementary information Notes 2–4.
The area under MRM peaks from GA-Cbl and PO-Cbl were measured with Analyst software version 1.5 from AB Sciex. Using calibration curve obtained for GA using inactivated S9 as matrix, the concentrations of GA in the metabolism studies were determined as described earlier by us[8]. The metabolic data was used to obtain Lineweaver-Burk plot for graphical representation of studied enzyme kinetics. Apparent values for the respective maximum velocity (Vmax) of the enzymatic conversion, the Michaelis constant (Km) and standard error were estimated by nonlinear fitting using the Hill function in Origin version 2015 (OriginLab, Northampton, MA, USA).
To human or rat liver S9 fraction (150 μL, 1–5 mg proteins) at 4 °C in a 2 mL vial with a screw-tight cap were added aqueous KCl (0.15 M, 300 μL), MgSO4 (80 mM, 150 μL), glucose-6-phosphate (50 mM, 150 μL) and NADP (40 mM, 150 μL), and the volume was made up to 1.5 mL with pH 7.5 phosphate buffer. The mixture was incubated for 5 min at 37 °C prior to the addition of the substrate.

[1] = cited from earlier work
[2] = parameters: method as in Doerge at al. (2005); details: male F344 rats, single dietary exposure ca. 100 µg AA/kg bw, n = 7, direct measurements; ref Doerge at al. (2005); cited from earlier work

NC(=O)C1CO1 (racemic) [GA, rac-Glycidamide]
Vmax (SE), GA elimination (in vitro; Human S9): 1.6 (0.7) nmol·mg protein^−1·min^−1
Vmax (SE), GA elimination (in vitro; Rat S9 (male SD)): 0.26 (0.02) nmol·mg protein^−1·min^−1
EE of elimination of GA, human compared to rat (times faster in human) (in vitro; liver S9, human vs. rat): ca. 1.5 times
EE of oxidative formation of GA, rat compared to human (times faster in rat) (in vitro; liver S9, rat vs. human): ca. 4 times
EE ratio of AA → GA to that of GAel, rat compared to human (times higher in rat) (in vitro; liver S9, rat vs. human): ca. 6 times
EE = Vmax/Km, GA elimination (in vitro; Sprague-Dawley, rat): 43 μL·mg protein^−1·min^−1
Km (in vitro; Sprague-Dawley, rat): 6 µM
EE = Vmax/Km, GA elimination (in vitro; human): 62 μL·mg protein^−1·min^−1
Km (in vitro; human): 26 µM
daily Hb adduct level increment per exposure dose ([1]; Human, AA-rich food 4 days, 11 μg AA/kg bw, adducts to N-terminal valine): 1.02 pmol/g globin per μg AA/kg bw and day
AUC-GA ([1]; Human, ca. 11 μg AA/kg bw and day through food, 4 days, n = 9, from Hb adducts): 49 nM·h/μg AA per kg bw and 49 ± 17 nM·h/μg AA per kg bw
AUC-GA ([1]; Humans, ca. 2.5 μg AA/kg bw daily through food, 28 days, n = 9, ref Vikström et al. (2011)): 21 nM·h/ μg AA per kg bw
AUC-GA ([1]; Humans, single dose in drinking water 500, 1000 and 3000 µg AA/kg bw, n = 6 males, ref Fennell et al. (2005)): 60 nM·h/ μg AA per kg bw
AUC-GA [2]: 19 nM·h/ μg AA per kg bw
